We go through 1 molecule from US10106523B2, “Amide compound” (ASTELLAS PHARMA INC., priority 2014, dated 2018).

The target in one experiment is T1, rat EP3 receptor (Rattus norvegicus, UniProt P34980).
T1 construct: expressed in transfected cells
T1 sequence (P34980 1-365): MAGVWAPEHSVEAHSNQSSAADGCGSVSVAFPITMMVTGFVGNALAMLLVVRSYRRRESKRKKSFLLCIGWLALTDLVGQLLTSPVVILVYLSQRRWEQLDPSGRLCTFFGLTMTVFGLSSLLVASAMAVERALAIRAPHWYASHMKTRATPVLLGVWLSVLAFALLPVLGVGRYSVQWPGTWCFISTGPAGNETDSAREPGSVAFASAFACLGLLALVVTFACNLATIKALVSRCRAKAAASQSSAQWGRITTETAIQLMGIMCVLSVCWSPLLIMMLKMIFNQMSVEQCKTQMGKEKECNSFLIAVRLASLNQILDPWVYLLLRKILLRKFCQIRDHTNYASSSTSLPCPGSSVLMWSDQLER
Nature of the experiment: Selectivity test: antagonistic action on rat EP3 receptor (intracellular Ca2+, HEK-293 cells). The experiment is classed as cell-based. Particulars: PGE2 100 nmol/L, HEK-293 cells stably expressing rat EP3; read-out: Concentration up to which no inhibitory action of 50% or more on the increase in intracellular Ca2+ concentration due to PGE2 through the rat EP3 receptor. The procedure: Test Example 9: Evaluation Test of Receptor Antagonistic Action on Rat EP1/EP2/EP3 Receptor (Selectivity Test)
The antagonistic action of Compound A on other subtypes ([…], EP2, and EP3) of the rat-derived PGE2 receptor was evaluated. For EP1 and EP3, the intracellular Ca^2+ amount was used as an indicator, and for EP2, the intracellular cAMP amount was used as an indicator, so as to investigate the action of the test compound.
Construction of Rat EP1, EP2, or EP3 Receptor Expressing Vector: A rat EP1 receptor gene (GenBank accession No.: D88751.1), a rat EP2 receptor gene (GenBank accession No.: NM_031088.1), or a rat EP3 receptor gene (GenBank accession No.: NM_012704.1) were inserted respectively into an expression vector pcDNA3.1-V5-His-TOPO (Invitrogen Inc.).
Construction of Cell Stably Expressing Rat EP1, EP2, or EP3 Receptor: […]
The intracellular Ca^2+ concentration was measured using FLIPR tetra (Molecular Devices, LLC.) with the fluorescence intensity of the Dye as an indicator. […] By taking the Ca^2+ concentration when PGE2 was added to a final concentration of 100 nmol/L as 100%, and taking the Ca^2+ concentration when PGE2 was not added as 0%, the Ca^2+ concentration in percentage with a treatment with the compound was calculated.

Experiment [1] deals with renin activity in rat plasma. Nature of the experiment: Action on renin activity in rat plasma (PRA increase due to EP4 agonist ONO-AE1-437). The experiment is classed as in vivo. Particulars: SD rats, 0.3 mg/kg po; ONO-AE1-437 0.01 mg/kg sc. The procedure: Test Example 6: Evaluation Test of Action on Renin Activity in Rat Plasma
SD rats (male, 7-week old) under non-fasting conditions were used for the test. A test compound dissolved in a mixed solution of PEG 400:20% Tween 80:1 mol/L aqueous NaHCO3 solution=1:4:5 was orally administered (po) to the rat at a dose of 0.3 mg/kg (5 mL/kg). After 1 hour, an active metabolite (ONO-AE1-437) of an EP4 agonist ONO-4819 dissolved in physiological saline was subcutaneously administered to the back of the rat at a dose of 0.01 mg/kg (5 mL/kg). After 10 minutes, the rat was decapitated without anesthesia and about 2 mL of blood was collected in a tube containing 3 mg of EDTA.2Na. The blood sample was centrifuged (1000×g, 10 minutes, 4° C.) to separate the plasma. […] The Angiotensin I concentration in both samples was measured by an ELISA method, and a concentration obtained by subtracting a value of the blank reaction from the value of the sample incubated at 37° C. was taken as a renin activity in plasma (plasma renin activity (PRA)). By taking the PRA of the inhibitor rate of the group (n=5) not treated with ONO-AE1-437 as 100% and taking that of the group (n=4) treated with ONO-AE1-437 as 0%, the inhibitory rate of the test compound group (n=5) was calculated.

Turning to `Cc1nn(Cc2cc3ccccc3cn2)c(C(=O)N[C@@H](C)c2ccc(C(=O)O)cc2)c1Br` [Compound A, 4-[(1S)-1-({[4-bromo-1-(isoquinolin-3-ylmethyl)-3-methyl-1H-pyrazol-5-yl]carbonyl}amino)ethyl]benzoic acid], the IC50 at rat EP3 receptor is more than 10 µM. For the same molecule, the “Inhibition of the increase in PRA (plasma renin activity) due to the EP4 agonist ONO-AE1-437” value in experiment [1] amounted to 102%.
